Laboratory results from US20250230171A1 (MOMA Therapeutics, Inc., priority 2023, published 2025).
pIC50: −log10 of the molar value. Like-named read-outs stand apart in the source and are kept apart here.

Tests used:
[1] = molecular target: biotinylated Avi-POLθ[2-894] (Homo sapiens (Human), UniProt O75417); assay: POLθ ATPase assay (ADP-Glo); conditions: n=2, read-out: Biochemical ATPase ADPGlo IC50
DLD1 BRCA2 (−/−) cells = assay: 7-day cell viability assay (CellTiter-Glo), DLD1 BRCA2 (−/−); type: cell-based, human; conditions: Homo sapiens, DLD-1, 168 h, n=2, read-out: Viability IC50 (uM) DLD1 BRCA2 null
In short: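 7-day growth assay in DLD1 cells with or without BRCA2; seeding densities chosen to keep log-linear growth. Compound: 10 uM top, 3-fold, 9 points. Endpoint: CTG ATP luminescence at RT.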

DLD1 WT cells = assay: 7-day cell viability assay (CellTiter-Glo), DLD1 parental (WT); type: cell-based, human; conditions: Homo sapiens, DLD-1, 168 h, n=2

Sequence of biotinylated Avi-POLθ[2-894] (O75417 2-894): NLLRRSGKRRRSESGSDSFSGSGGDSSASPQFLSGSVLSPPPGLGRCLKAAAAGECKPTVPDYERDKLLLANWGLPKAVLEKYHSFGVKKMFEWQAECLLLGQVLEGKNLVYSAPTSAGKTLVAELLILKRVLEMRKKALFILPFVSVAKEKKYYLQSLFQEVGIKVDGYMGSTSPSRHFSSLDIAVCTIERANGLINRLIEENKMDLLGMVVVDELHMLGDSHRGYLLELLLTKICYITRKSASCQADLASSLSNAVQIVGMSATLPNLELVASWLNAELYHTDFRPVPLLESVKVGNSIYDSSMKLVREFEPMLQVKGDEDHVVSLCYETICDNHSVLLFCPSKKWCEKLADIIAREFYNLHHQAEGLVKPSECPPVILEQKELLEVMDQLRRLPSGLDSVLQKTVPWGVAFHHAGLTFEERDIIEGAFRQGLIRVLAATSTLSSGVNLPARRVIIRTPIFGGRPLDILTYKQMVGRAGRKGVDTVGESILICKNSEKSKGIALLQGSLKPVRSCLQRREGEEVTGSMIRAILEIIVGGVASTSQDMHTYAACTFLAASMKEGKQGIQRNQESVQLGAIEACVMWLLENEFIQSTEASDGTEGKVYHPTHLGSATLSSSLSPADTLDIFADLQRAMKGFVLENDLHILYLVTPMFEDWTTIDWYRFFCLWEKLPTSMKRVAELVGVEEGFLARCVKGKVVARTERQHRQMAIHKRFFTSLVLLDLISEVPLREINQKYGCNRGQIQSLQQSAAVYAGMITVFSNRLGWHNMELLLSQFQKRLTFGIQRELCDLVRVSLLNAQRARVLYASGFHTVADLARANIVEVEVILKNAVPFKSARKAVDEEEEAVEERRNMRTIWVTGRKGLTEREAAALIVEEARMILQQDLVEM

pIC50 [1]	IC50 (DLD1 BRCA2 (−/−) cells; 7-day viability)	pIC50 ([1]; POLθ ATPase, ADP-Glo)	IC50 (DLD1 BRCA2 (−/−) cells; 7-day CellTiter-Glo)	SMILES	IC50 (DLD1 WT cells; 7-day viability)	IC50 (DLD1 WT cells; 7-day CellTiter-Glo)
7.82 to 9.00	0.001 to 0.1 µM			COc1cnc(Cl)cc1-c1cc(C)ncc1C(=O)Nc1nc2c(s1)CN(C(=O)c1ccc(OC)c3ccnn13)C2 [Example 402]	≥ 10 µM	
7.82 to 9.00	0.001 to 0.1 µM			COc1cnc(Cl)cc1-c1cc(C)ncc1C(=O)Nc1nc2c(s1)CN(C(=O)c1cc(C(C)C)n(C)n1)C2 [Example 95, 2′-chloro-N-(5-(5-isopropyl-1-methyl-1H-pyrazole-3-carbonyl)-5,6-dihydro-4H-pyrrolo[3,4-d]thiazol-2-yl)-5′-methoxy-6-methyl-[4,4′-bipyridine]-3-carboxamide]	≥ 10 µM	
		7.82 to 9.00	0.001 to 0.1 µM	COc1cnc(Cl)cc1-c1cc(C)ncc1C(=O)Nc1nc2c(s1)CN(C(=O)c1ccc(C(F)F)nc1Cl)C2		≥ 10 µM
7.82 to 9.00	0.001 to 0.1 µM			COc1cnc(Cl)cc1-c1cc(C)ncc1C(=O)Nc1nc2c(s1)CN(C(=O)C1CCC(OC(F)F)CC1)C2 (stereo not drawn) [Example 2, (Cis and Trans) 2′-chloro-N-(5-(4-(difluoromethoxy)cyclohexane-1-carbonyl)-5,6-dihydro-4H-pyrrolo[3,4-d]thiazol-2-yl)-5′-methoxy-6-methyl-[4,4′-bipyridine]-3-carboxamide]	≥ 10 µM	
7.82 to 9.00	0.001 to 0.1 µM			COc1cnc(Cl)cc1-c1cc(C)ncc1C(=O)Nc1nc2c(s1)CN(C(=O)c1cccc(C(F)F)n1)C2 [Example 18, 2′-chloro-N-(5-(6-(difluoromethyl)picolinoyl)-5,6-dihydro-4H-pyrrolo[3,4-d]thiazol-2-yl)-5′-methoxy-6-methyl-[4,4′-bipyridine]-3-carboxamide]	5 to 10 µM	
7.82 to 9.00	0.25 to 0.5 µM			COc1cnc(Cl)cc1-c1cc(C)ncc1C(=O)Nc1nc2c(s1)CN(C(=O)c1cn(C)nc1OC)C2	≥ 10 µM	
7.82 to 9.00	0.001 to 0.1 µM			COc1cnc(Cl)cc1-c1cc(C)ncc1C(=O)Nc1nc2c(s1)CN(C(=O)c1cnc(C(F)F)cn1)C2 [Example 40, 2′-chloro-N-(5-(5-(difluoromethyl)pyrazine-2-carbonyl)-5,6-dihydro-4H-pyrrolo[3,4-d]thiazol-2-yl)-5′-methoxy-6-methyl-[4,4′-bipyridine]-3-carboxamide]	5 to 10 µM	
7.82 to 9.00	0.001 to 0.1 µM			COc1cnc(Cl)cc1-c1cc(C)ncc1C(=O)Nc1nc2c(s1)CN(C(=O)C1CC(OC(F)(F)F)C1)C2 (stereo not drawn) [Example 196]	≥ 10 µM	
7.82 to 9.00	0.5 to 2 µM			COc1ccc(C#N)cc1-c1cc(C)ncc1C(=O)Nc1nc2c(s1)CN(C(=O)C1CCCC1)C2	≥ 10 µM	
7.82 to 9.00	0.001 to 0.1 µM			COc1cnc(Cl)cc1-c1cc(C)ncc1C(=O)Nc1nc2c(s1)CN(C(=O)c1ccc(C(F)F)cn1)C2 [Example 9, 2′-chloro-N-(5-(5-(difluoromethyl)picolinoyl)-5,6-dihydro-4H-pyrrolo[3,4-d]thiazol-2-yl)-5′-methoxy-6-methyl-[4,4′-bipyridine]-3-carboxamide]	≥ 10 µM	
≤ 6.05	≥ 2 µM			COc1ccccc1-c1cc(C)ncc1C(=O)Nc1nc2c(s1)CN(c1ccc(Cl)cc1)CC2	≥ 10 µM	
		7.82 to 9.00	0.001 to 0.1 µM	COc1cnc(C(F)F)nc1-c1cc(C)ncc1C(=O)Nc1nc2c(s1)CN(C(=O)c1ccc(C(F)(F)F)nc1OC)C2 [Example 1042, 4-(2-(difluoromethyl)-5-methoxypyrimidin-4-yl)-N-(5-(2-methoxy-6-(trifluoromethyl)nicotinoyl)-5,6-dihydro-4H-pyrrolo[3,4-d]thiazol-2-yl)-6-methylnicotinamide]		≥ 10 µM
7.82 to 9.00	0.001 to 0.1 µM			COc1cnc(Cl)cc1-c1cc(C)ncc1C(=O)Nc1nc2c(s1)CN(C(=O)c1ccc(OC(F)F)cn1)C2 [Example 93, 2′-chloro-N-(5-(5-(difluoromethoxy)picolinoyl)-5,6-dihydro-4H-pyrrolo[3,4-d]thiazol-2-yl)-5′-methoxy-6-methyl-[4,4′-bipyridine]-3-carboxamide]	0.001 to 0.5 µM	
